Laboratory results reported in patent US10828368B2, “Therapeutic treatments using centhaquin” (MIDWESTERN UNIVERSITY, priority 2009, dated 2020).
Like-named read-outs stand apart in the source and are kept apart here.

How the values were obtained:
[1] = test system: urethane anaesthetized rats; experiment: Cardiovascular response (MAP, PP, HR) of drugs in urethane anaesthetized rats; assay type: in vivo, rat; settings: for decrease in MAP / reduction in HR: compared to baseline; for dose-response effect on MAP, PP and HR: clonidine 10, 30, 90 μg/kg i.v., centhaquin 0.05, 0.15, 0.45 mg/kg i.v.
Text: Rats were anaesthetized with urethane (1.5 g/kg i.p.) and prepared for the determination of hemodynamic parameters (Gulati and Srimal, 1993; Gulati et al., 1997b). The anesthetized rats were shaved and immobilized to prepare for cannulation. A 2-3 cm incision was made above the femoral vein and artery, and the vessels were dissected and cleaned. The left femoral vein was cannulated (PE-50 tubing, Clay Adams, Parsipanny, N.J.) and secured for drug administration. An ultra-miniature Pressure transducer SPR-320 (2F Polyurethane), with a single pressure sensor side mounted at the tip (Millar Instruments, Houston, Tex.), was inserted in the left femoral artery to acquire the hemodynamic signals. Pressure transducer was connected to bridge amplifier (ML221 Bridge Amp; AD Instruments, Mountain View, Calif., USA) with Viking connector (AEC-10C) and the signals were continuously acquired at a sampling rate of 1000 S^−1 using Millar PowerLab 16/30 data acquisition system (AD Instruments, Mountain View, Calif., USA). MAP, HR, and PP were determined and analyzed with LabChart-5.00 software program (Millar Instruments). After the experiment was completed, the animals were euthanized with higher dose of urethane (3 gm/kg).
The animals were allowed to stabilize for at least 20 min following surgical procedures.
In the above studies, all drugs were injected through the left femoral vein and changes in MAP, HR, and PP after clonidine and centhaquin injection were recorded for 1 hour using Millar PowerLab 16/30 data acquisition system.

[2] = Arterial blood gas analysis before and one hour after drug; assay type: in vivo, rat; settings: for changes in arterial blood pH, pO2, pCO2, Na^+, K^+, lactate and hematocrit: before versus one hour after clonidine 90 μg/kg or centhaquin 0.45 mg/kg
Text: Arterial blood pH, pO2, pCO2, Na^+, K^+, and lactate were monitored prior to and after drug administration. Blood samples were drawn from the arterial cannula using blood gas sampling syringes (Innovative Medical Technologies, Inc. Leawood, Kans.) and analyzed using a GEM Premier 3000 unit (Instrument Laboratory, Lexington, Mass.).
Blood samples were drawn from the arterial cannula using blood gas sampling syringes (Innovative Medical Technologies, Inc. Leawood, Kans.) and analyzed using a GEM Premier 3000 unit (Instrument Laboratory, Lexington, Mass.).

[3] = test system: rats; experiment: Tail-flick latency analgesia (FIGS. 9-13); assay type: in vivo, rat; settings: iv
[4] = test system: rats in the hemorrhagic shock model; experiment: Hemorrhagic shock model, resuscitation with Ringer's lactate and centhaquin; assay type: in vivo, rat
[5] = test system: mice; settings: intraperitoneal; cited from earlier work
[6] = test system: rats; settings: cited from earlier work
[7] = once a day for 15 days; cited from earlier work
[8] = test system: norepinephrine release; settings: centhaquin 0.1, 1.0 and 10.0 μg/ml; cited from earlier work
[9] = test system: α-adrenergic receptors in the hypothalamus and medulla; settings: chronic administration in rats; with hypotension and bradycardia; cited from earlier work
[10] = test system: 5-HT1 receptors in the medulla; settings: cited from earlier work
[11] = one hour after clonidine 90 μg/kg or centhaquin 0.45 mg/kg

Cc1cccc(N2CCN(CCc3ccc4ccccc4n3)CC2)c1 [Centhaquin]
decrease in MAP ([1]; centhaquin 0.05 mg/kg i.v.): 15.64% | reduction in HR ([1]; centhaquin 0.05 mg/kg i.v.): 10.49% | decrease in MAP ([1]; centhaquin 0.15 mg/kg i.v.): 25.15% | reduction in HR ([1]; centhaquin 0.15 mg/kg i.v.): 12.57% | decrease in MAP ([1]; centhaquin 0.45 mg/kg i.v.): 28.08% | reduction in HR ([1]; centhaquin 0.45 mg/kg i.v.): 13.34% | dose-response effect on MAP, PP and HR [1]: dose-dependent fall in MAP, and a decrease in HR | dose-response effect on MAP, PP and HR ([1]; listed as centhaquin): dose-dependent hypotension and bradycardia | changes in arterial blood pH, pO2, pCO2, Na^+, K^+, lactate and hematocrit [2]: did not affect arterial blood pH, pO2, and pCO2 | changes in arterial blood pH, pO2, pCO2, Na^+, K^+, lactate and hematocrit ([2]; listed as centhaquin): no significant changes | Hct [2, 11]: 52 ± 1% | K^+ [2, 11]: 4.0 ± 0.2 mmol/L | Na^+ [2, 11]: 140 ± 1 mmol/L | arterial blood pH [2, 11]: 7.27 ± 0.02 | pCO2 [2, 11]: 53 ± 2 mmHg | pO2 [2, 11]: 96 ± 9 mmHg | analgesic effect relative to 4 mg/kg dose of morphine ([3]; centhaquin 0.3 mg/kg): comparable | analgesic effect relative to 4 mg/kg dose of morphine ([3]; centhaquin 0.9 mg/kg): significantly greater | analgesia (tail-flick latency) ([3]; centhaquin 0.1, 0.3 and 0.9 mg/kg): dose-dependent analgesia | effect on morphine analgesia ([3]; centhaquin 0.3 and 0.9 mg/kg): potentiated | pressure-volume loops ([4]; LR-100 and centhaquin 0.05 mg/kg compared with LR-100): improvement | blood lactate, comparison of centhaquin doses ([4]; centhaquin 0.05-0.45 mg/kg): lower doses of centhaquin were more effective than the higher doses | blood lactate ([4]; centhaquin 0.05-0.45 mg/kg with Ringer's lactate): drop in lactate | survival time ([4]; centhaquin administered with LR-100): increase in survival time | LD50 [5]: 600 mg/kg | effect on MAP and HR ([6]; centhaquin 0.05 to 0.2 mg/kg, iv, urethane anesthetized rats): dose-dependent decrease | effect on MAP or HR ([6]; cervical sectioned rats, intravenously administered): did not produce any effect | effect on MAP or HR ([6]; intrathecal administration): did not produce any effect | potentiation or tolerance on repeated administration [7]: did not produce any potentiation or tolerance | norepinephrine release evoked by potassium chloride and dimethyl phenyl piperazinium chloride [8]: inhibited | spontaneous release of norepinephrine [8]: initial increase followed by decrease | effect of chronic administration on α-adrenergic receptors in the hypothalamus and medulla [9]: up-regulation | effect of repeated administration on 5-HT1 receptors in the medulla [10]: up-regulation
